Data as given in US20240025884A1 (Dong-A ST Co., Ltd., priority 2022, published 2024).

Biological target: GCN2 (Homo sapiens (Human), UniProt Q9P2K8)
Test: GCN2 Biochemical Assay (TR-FRET, GFP-eIF2S1 substrate phosphorylation)
Conditions: read-out: IC50 (GCN2 Inhibitory Activity)
Protocol: Experimental Example 1: GCN2 Biochemical Assay
An inhibitory effect of the inventive compound on GCN2 was identified as follows.
384-well (Greiner #784075) (or 1536-well [Greiner #782075]) plates containing 60 nl (or 20 nl for 1536-well) of compound in 100% DMSO (10 concentrations serially diluted 3.16-fold) were prepared. Two copies of plates were used—one for the GCN2 assay and a second for an artifact plate. Working reagents were prepared as follows—reaction buffer: Tris pH 7.5 20 mM, MgCl2 5 mM, DTT 1 mM, Brij-35 0.005%, EGTA 0.5 mM in water; 2× enzyme solution: GCN2 (produced in-house) 1.6 nM in reaction buffer; 2× substrate solution: GFP-eIFS1 (Thermo Fisher Scientific, PV4809) 50 nM, ATP 0.2 mM, tRNA 0.4 mg/ml in reaction buffer; p-GFP-eIF2S1 (artifact) solution: p-GFP-eIFS1 (produced by incubation of 100 nM GFP-eIF2S1 in reaction buffer with 100 uM ATP and 1 nM PERK KD enzyme for 3 hr at room temperature) 2 nM in reaction buffer; 3× stop/antibody solution: p-GFP-EIF2S1 Th-Ab (Thermo Fisher Scientific, PV4816) 6 nM, AZ13933939 3 uM, BSA 3% in reaction buffer. Reagents were loaded onto a liquid dispenser (Certus FLEX, Trajan Scientific and Medical), and 3 ul (1 ul for 1536-well) of 2× enzyme solution, followed by 3 ul (1 ul for 1536-well) of 2× substrate solution was added to the plates. When small numbers of plates were processed, the enzyme solution was added first to all plates, then the valve used for the substrate solution was primed immediately prior to use. Plates were tapped or spun 1 min/1K/RT to ensure proper mixing, followed by incubation at room temperature for 70 mins, covered/stacked in the dark. For the artifact plate, 6 ul of p-GFP-eIF2S1 solution was added prior to adding the stop/antibody solution. 3 ul (1 ul for 1536-well) of 3× stop/antibody solution was added to the plates, followed by a spin-down for 1 min/1K/RT, and incubation for 2-3 hr, sealed or covered with lids in the dark at room temperature. Plates were read on a plate reader (PHERAstar FSX, BMF Labtech) at Ex 340/Em 490/Em 520 nm.

Sequence of GCN2 (Q9P2K8 whole entry): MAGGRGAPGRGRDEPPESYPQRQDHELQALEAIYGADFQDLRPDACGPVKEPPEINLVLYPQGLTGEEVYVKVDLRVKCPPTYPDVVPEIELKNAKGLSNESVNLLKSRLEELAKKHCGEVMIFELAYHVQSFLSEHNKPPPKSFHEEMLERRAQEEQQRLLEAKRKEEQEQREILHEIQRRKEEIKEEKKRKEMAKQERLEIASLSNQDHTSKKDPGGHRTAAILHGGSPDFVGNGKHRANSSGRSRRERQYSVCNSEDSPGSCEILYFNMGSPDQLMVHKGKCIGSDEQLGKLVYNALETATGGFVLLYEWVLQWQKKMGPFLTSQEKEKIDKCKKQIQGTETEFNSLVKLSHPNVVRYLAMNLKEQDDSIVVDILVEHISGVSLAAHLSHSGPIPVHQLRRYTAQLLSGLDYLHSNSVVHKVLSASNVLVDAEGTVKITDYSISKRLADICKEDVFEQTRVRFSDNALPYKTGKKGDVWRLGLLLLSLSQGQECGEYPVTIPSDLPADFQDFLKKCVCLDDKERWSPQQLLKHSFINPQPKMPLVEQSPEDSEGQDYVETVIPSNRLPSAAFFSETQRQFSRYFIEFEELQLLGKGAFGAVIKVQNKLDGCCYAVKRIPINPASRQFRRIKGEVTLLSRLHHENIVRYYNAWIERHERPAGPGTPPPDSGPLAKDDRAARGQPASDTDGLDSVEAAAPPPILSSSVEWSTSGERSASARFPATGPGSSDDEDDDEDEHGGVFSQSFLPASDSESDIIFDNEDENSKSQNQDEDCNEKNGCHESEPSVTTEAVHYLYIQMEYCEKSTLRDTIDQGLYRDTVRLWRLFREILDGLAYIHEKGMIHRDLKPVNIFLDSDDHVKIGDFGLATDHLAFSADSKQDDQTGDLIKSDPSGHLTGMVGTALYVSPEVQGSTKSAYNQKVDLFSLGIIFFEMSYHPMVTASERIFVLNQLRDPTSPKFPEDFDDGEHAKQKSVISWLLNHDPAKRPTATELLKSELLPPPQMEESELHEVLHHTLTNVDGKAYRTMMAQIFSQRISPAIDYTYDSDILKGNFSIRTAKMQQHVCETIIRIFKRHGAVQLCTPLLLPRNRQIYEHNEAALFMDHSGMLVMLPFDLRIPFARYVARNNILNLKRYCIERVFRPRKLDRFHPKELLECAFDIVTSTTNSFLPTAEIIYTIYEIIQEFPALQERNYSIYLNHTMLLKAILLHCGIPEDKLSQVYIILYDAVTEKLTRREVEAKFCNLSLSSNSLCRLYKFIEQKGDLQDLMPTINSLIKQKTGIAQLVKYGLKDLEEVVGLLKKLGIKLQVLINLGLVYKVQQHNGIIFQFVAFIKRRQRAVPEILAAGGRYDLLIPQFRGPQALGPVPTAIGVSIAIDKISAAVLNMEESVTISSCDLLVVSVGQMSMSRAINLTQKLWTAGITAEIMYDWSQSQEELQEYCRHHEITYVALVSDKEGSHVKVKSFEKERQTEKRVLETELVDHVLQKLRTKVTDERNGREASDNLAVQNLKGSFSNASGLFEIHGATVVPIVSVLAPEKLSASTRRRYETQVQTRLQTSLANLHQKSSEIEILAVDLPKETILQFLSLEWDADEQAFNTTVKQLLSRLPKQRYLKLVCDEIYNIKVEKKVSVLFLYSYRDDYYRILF

IC50, < 10 nM:
CCc1cnc(Nc2cc(C)n(C)n2)nc1-c1c[nH]c2c(NC(=O)CN3CC[C@H](Oc4ccnc(NC5CC5)n4)C3)cccc12 (stereo in doubt) [Example 11, (3-((2-(cyclopropylamino)pyrimidin-4-yl)oxy)pyrrolidin-1-yl)-N-(3-(2-((1,5-dimethyl-1H-pyrazol-3-yl)amino)-5-ethylpyrimidin-4-yl)-1H-indol-7-yl)acetamide]
Cc1cnc(Nc2cc(C)n(C)n2)nc1-c1c[nH]c2c(NC(=O)CN3CC[C@H](Oc4ccnc(NC5CC5)n4)C3)c(F)ccc12 [Example 1, (S)-2-(3-((2-(cyclopropylamino)pyrimidin-4-yl)oxy)pyrrolidin-1-yl)-N-(3-(2-((1,5-dimethyl-1H-pyrazol-3-yl)amino)-5-methylpyrimidin-4-yl)-6-fluoro-1H-indol-7-yl)acetamide]
Cc1cnc(Nc2cc(C)n(C)n2)nc1-c1c[nH]c2c(NC(=O)CN3CC[C@H](Oc4ccnc(NC5CC5)n4)C3)c(N(C)C)ccc12 [Example 3, (S)-2-(3-((2-(cyclopropylamino)pyrimidin-4-yl)oxy)pyrrolidin-1-yl)-N-(3-(2-((1,5-dimethyl-1H-pyrazol-3-yl)amino)-5-methylpyrimidin-4-yl)-6-(dimethylamino)-1H-indol-7-yl)acetamide]
COc1ccc2c(-c3nc(Nc4cc(C)n(C)n4)ncc3C)c[nH]c2c1NC(=O)CN1CC[C@H](Oc2ccnc(NC3CC3)n2)C1 [Example 4, (S)-2-(3-((2-(cyclopropylamino)pyrimidin-4-yl)oxy)pyrrolidin-1-yl)-N-(3-(2-((1,5-dimethyl-1H-pyrazol-3-yl)amino)-5-methylpyrimidin-4-yl)-6-methoxy-1H-indol-7-yl)acetamide]
Cc1cnc(Nc2cc(C)n(C)n2)nc1C1=CCc2c1ccc(N(C)C)c2NC(=O)CN1CC[C@H](Oc2ccnc(NCC(F)(F)F)n2)C1 [Example 5, (S)-N-(3-(2-((1,5-dimethyl-1H-pyrazol-3-yl)amino)-5-methylpyrimidin-4-yl)-6-(dimethylamino)-1H-inden-7-yl)-2-(3-((2-((2,2,2-trifluoroethyl)amino)pyrimidin-4-yl)oxy)pyrrolidin-1-yl)acetamide]
Cc1cc(Nc2nccc(-c3c[nH]c4c(NC(=O)CN5CC[C@H](Oc6cc(NC7CC7)ncn6)C5)cccc34)n2)nn1C [Example 7, (S)-2-(3-((6-(cyclopropylamino)pyrimidin-4-yl)oxy)pyrrolidin-1-yl)-N-(3-(2-((1,5-dimethyl-1H-pyrazol-3-yl)amino)pyrimidin-4-yl)-1H-indol-7-yl)acetamide]
Cc1cc(Nc2ncc(F)c(-c3c[nH]c4c(NC(=O)CN5CC[C@H](Oc6ccncc6)C5)cccc34)n2)nn1C [Example 8, (S)-N-(3-(2-((1,5-dimethyl-1H-pyrazol-3-yl)amino)-5-fluoropyrimidin-4-yl)-1H-indol-7-yl)-2-(3-(pyridin-4-yloxy)pyrrolidin-1-yl)acetamide]
Cc1cc(Nc2ncc(Cl)c(-c3c[nH]c4c(NC(=O)CN5CC[C@H](Oc6ccncc6)C5)cccc34)n2)nn1C [Example 9, (S)-N-(3-(5-chloro-2-((1,5-dimethyl-1H-pyrazol-3-yl)amino)pyrimidin-4-yl)-1H-indol-7-yl)-2-(3-(pyridin-4-yloxy)pyrrolidin-1-yl)acetamide]
COc1cnc(Nc2cc(C)n(C)n2)nc1-c1c[nH]c2c(NC(=O)CN3CC[C@H](Oc4ccnc(NC5CC5)n4)C3)cccc12 [Example 13, (S)-2-(3-((2-(cyclopropylamino)pyrimidin-4-yl)oxy)pyrrolidin-1-yl)-N-(3-(2-((1,5-dimethyl-1H-pyrazol-3-yl)amino)-5-methoxypyrimidin-4-yl)-1H-indol-7-yl)acetamide]
COc1cnc(Nc2cc(C)n(C)n2)nc1-c1c[nH]c2c(NC(=O)CN3CC[C@H](Oc4cnnc(NC5CC5)n4)C3)cccc12 [Example 14, (S)-2-(3-((3-(cyclopropylamino)-1,2,4-triazin-5-yl)oxy)pyrrolidin-1-yl)-N-(3-(2-((1,5-dimethyl-1H-pyrazol-3-yl)amino)-5-methoxypyrimidin-4-yl)-1H-indol-7-yl)acetamide]
Cc1cnc(Nc2cc3n(n2)CCC3)nc1-c1c[nH]c2c(NC(=O)CN3CC[C@H](Oc4ccncn4)C3)cccc12 [Example 15, (S)-N-(3-(2-((5,6-dihydro-4H-pyrrolo[1,2-b]pyrazol-2-yl)amino)-5-methylpyrimidin-4-yl)-1H-indol-7-yl)-2-(3-(pyrimidin-4-yloxy)pyrrolidin-1-yl)acetamide]
Cc1cnc(Nc2cc3n(n2)CCC3)nc1-c1c[nH]c2c(NC(=O)CN3CC[C@H](Oc4ccnc(NC5CC5)n4)C3)cccc12 [Example 16, (S)-2-(3-((2-(cyclopropylamino)pyrimidin-4-yl)oxy)pyrrolidin-1-yl)-N-(3-(2-((5,6-dihydro-4H-pyrrolo[1,2-b]pyrazol-2-yl)amino)-5-methylpyrimidin-4-yl)-1H-indol-7-yl)acetamide]
Cc1cnc(Nc2cc(C)n(CCN3CCOCC3)n2)nc1-c1c[nH]c2c(NC(=O)CN3CC[C@H](Oc4ccnc(NC5CC5)n4)C3)cccc12 [Example 17, (S)-2-(3-((2-(cyclopropylamino)pyrimidin-4-yl)oxy)pyrrolidin-1-yl)-N-(3-(5-methyl-2-((5-methyl-1-(2-morpholinoethyl)-1H-pyrazol-3-yl)amino)pyrimidin-4-yl)-1H-indol-7-yl)acetamide]
Cc1cnc(Nc2cc(C)n(C)n2)nc1-c1c[nH]c2c(NC(=O)C(=O)N3CC[C@H](Oc4ccnc(NC5CC5)n4)C3)cccc12 [Example 20, (S)-2-(3-((2-(cyclopropylamino)pyrimidin-4-yl)oxy)pyrrolidin-1-yl)-N-(3-(2-((1,5-dimethyl-1H-pyrazol-3-yl)amino)-5-methylpyrimidin-4-yl)-1H-indol-7-yl)-2-oxoacetamide]

IC50, 100 to 1000 nM:
Cc1cnc(Nc2cc(C)n(C)n2)nc1-c1c[nH]c2c(NC(=O)CN3CC[C@H](Oc4cnc(-c5ccccc5)nc4)C3)cccc12 (stereo in doubt) [Example 257, N-(3-(2-((1,5-dimethyl-1H-pyrazol-3-yl)amino)-5-methylpyrimidin-4-yl)-1H-indol-7-yl)-2-(3-((2-phenylpyrimidin-5-yl)oxy)pyrrolidin-1-yl)acetamide]

IC50, 10 to 100 nM:
Cc1cnc(Nc2cc(C)n(C)n2)nc1-c1c[nH]c2c(NC(=O)CN3CCC(Oc4cc(C(F)(F)F)n(C)n4)C3)cccc12 (stereo in doubt) [Example 117, (R)-N-(3-(2-((1,5-dimethyl-1H-pyrazol-3-yl)amino)-5-methylpyrimidin-4-yl)-1H-indol-7-yl)-2-(3-((1-methyl-5-(trifluoromethyl)-1H-pyrazol-3-yl)oxy)pyrrolidin-1-yl)acetamide]
Cc1cnc(Nc2cc(C)n(C)n2)nc1-c1c[nH]c2c(NC(=O)CN3CC[C@H](Oc4ccnc(NC5CC5)n4)C3)cc(N)cc12 [Example 2, (S)-N-(5-amino-3-(2-((1,5-dimethyl-1H-pyrazol-3-yl)amino)-5-methylpyrimidin-4-yl)-1H-indol-7-yl)-2-(3-((2-(cyclopropylamino)pyrimidin-4-yl)oxy)pyrrolidin-1-yl)acetamide]
COc1ccc2c(-c3nc(Nc4cc(C)n(C)n4)ncc3C)c[nH]c2c1NC(=O)CN1CC[C@H](Oc2ccnc(NCC(F)(F)F)n2)C1 [Example 6, (S)-N-(3-(2-((1,5-dimethyl-1H-pyrazol-3-yl)amino)-5-methylpyrimidin-4-yl)-6-methoxy-1H-indol-7-yl)-2-(3-((2-((2,2,2-trifluoroethyl)amino)pyrimidin-4-yl)oxy)pyrrolidin-1-yl)acetamide]
Cc1cc(Nc2ncc(C3CC3)c(-c3c[nH]c4c(NC(=O)CN5CC[C@H](Oc6ccnc(NC7CC7)n6)C5)cccc34)n2)nn1C [Example 12, (S)-N-(3-(5-cyclopropyl-2-((1,5-dimethyl-1H-pyrazol-3-yl)amino)pyrimidin-4-yl)-1H-indol-7-yl)-2-(3-((2-(cyclopropylamino)pyrimidin-4-yl)oxy)pyrrolidin-1-yl)acetamide]
Cc1cnc(Nc2cc(C)n(C)n2)nc1-c1c[nH]c2c(NC(=O)C(=O)N3CC[C@H](Oc4ccncc4)C3)cccc12 [Example 18, (S)-N-(3-(2-((1,5-dimethyl-1H-pyrazol-3-yl)amino)-5-methylpyrimidin-4-yl)-1H-indol-7-yl)-2-ox0-2-(3-(pyridin-4-yloxy)pyrrolidin-1-yl)acetamide]
Cc1cnc(Nc2cc(C)n(C)n2)nc1-c1c[nH]c2c(NC(=O)C(=O)N3CCC(Oc4ccccn4)C3)cccc12 (stereo not drawn) [Example 19]
